{"source": "patent US7691416B2", "about": "“Methods of treating vascular disease” (priority 2002, dated 2010)", "tested_on": "graft infiltration by activated leukocytes", "assay": "Immunostaining and cell population analysis of the adventitia of aortic grafts", "assay_type": "in vivo, rat", "conditions": "56 days after transplantation", "excerpt": "Animals. Male (250-350 g) Brown Norway rats (RT1^n) were used as aortic graft donors and male (250-350 g) Lewis rats (RT11) as recipients. Dawley (400-450 g) rats were used in the balloon injury model. Adult male C57BL/6, C57/S129, p21^−/− and p53^−/− null mice were purchased from Jackson Laboratory (Bar Harbor, Me.). mkk3^(−/−) null mice were generated as described Lu et al. (EMBO. 18:1845-1857 (1999)). The inos^−/− and enos^−/− mice were bred at the University of Pittsburgh. Aortic transplant model. Aortic transplantation was performed as described in Shimizu et al. (Nat. Med. 7:738-741 (2001)). Briefly, 3 to 4 cm of descending aorta was harvested from the donor and implanted between the renal arteries and the aortic bifurcation of the recipient. Both edges of the native abdominal aorta were ligated. Balloon injury model. Balloon angioplasty was carried out as described in Murakami et al. (Atherosclerosis 157:361-368 (2001)). Briefly, a 2 Fr. arterial embolectomy catheter (Baxter, Chicago, Ill.) was inserted into the common carotid artery, and injury was created by inflating the balloon to 5 atmospheres of pressure for 5 minutes. The arteries were flushed and the external carotid artery was ligated, ensuring return of blood flow through the common and internal carotid arteries. Injury of the vessel wall and subsequent pathological analysis was made in a manner that was blinded to the treatment group. CO exposure. CO was delivered to animals as described in Otterbein et al. (Nat. Med. 6:422-428 (2000)). […] In the balloon injury model, rats received either no pretreatment or were exposed to CO (250 ppm) for one hour prior to injury. Following surgery rats were housed in room air for two weeks. Cells. Primary mouse and rat smooth muscle cells (SMC) were isolated and cultured as described in Laubach et al. (Proc Natl Acad Sci USA 92:10688-9 (1995)). Mouse SMC isolated from HO-1^−/− mice were obtained as described in Duckers et al. (Nat. Med. 7:693-698 (2001)). Cell treatment and reagents. Guanylate cyclase inhibitor 1H(1,2,4) oxadiazolo(4,3-a)quinoxalin-1 (ODQ; Calbiochem-Novabiochem, San Diego, Calif.; 10-100 μM) and p38 MAPK inhibitor pyridinyl imidazol SB203580 (Calbiochem; 5-20 μM) were dissolved in DMSO. The cGMP analogue 8-bromo-cGMP sodium salt (8-Br-cGMP; Sigma-Aldrich, St. Louis, Mo.; 10-100 μM) and the PKG inhibitor (10-100 μM; Alexis Biochemicals) were dissolved in water. […] [^3H]thymidine incorporation was measured by scintillation spectroscopy and presented as mean counts/min/well. […] Areas from eight to ten captured images were calculated using digital imaging software as number of pixels corresponding to those areas. Twenty-four to forty-eight sections from each group were statistically analyzed with SPSS software version 10. […]", "key": {"[1]": {"conditions": "adventitia of allogeneic aortic grafts"}}}
{"compound": "[C-]#[O+]", "note": "[CO, carbon monoxide]", "values": [{"measurement": "Accumulation of CD45+/CD3+ T cells, inhibition versus air treated controls", "setting": "[1]", "value": "57±22", "unit": "%"}, {"measurement": "Accumulation of CD45+/CD68+ monocyte/macrophages, inhibition versus air treated controls", "setting": "[1]", "value": "65±24", "unit": "%"}, {"measurement": "Expression of MHC II antigens and CD54/ICAM-1 (Mø activation)", "setting": "[1]", "value": "inhibited"}, {"measurement": "Graft infiltration by activated leukocytes (CD45+), inhibition versus air treated controls", "setting": "maximal effect, 700 to 1000 ppm of CO", "value": "52±20", "unit": "%"}]}
